According to patent publication US20250361486A1, “METHOD FOR CULTURING CELLS REQUIRING A SUPPLY OF IRON” (SAFI BIOTHERAPEUTICS INC., priority 2022, published 2025):

Key:
cultured red blood cells [1] = test: Preservation yield of cultured red blood cells after 28 days in a preservation solution; type: cell-based; conditions: culture conducted with Trolox approximately 100 μM; red blood cells stored for 28 days in a preservation solution; 63% without Trolox
Protocol: (§1) Cultured red blood cell production was performed with and without the addition of Trolox during the perfusion bioreactor culture step of the process described below.
(§2) Briefly, the cells cultured according to the invention are total nucleated cells collected by cytapheresis from volunteer donors previously mobilised with G-CSF.
(§3) A first step of the process according to the invention is carried out over 7 days (from D1 to D7) in fed-batch at a temperature of 37° C., under an atmosphere of 5% CO2 and in a culture medium adapted from that described by Giarratana et al. (2011) “Proof of principle for transfusion of in vitro-generated red blood cells”, Blood 118:5071-5079 for the first step of the expansion procedure described in the article (page 5072). Halfway through this step, fresh culture medium is added to the culture so as to dilute the culture by half (the same volume of culture medium is added as the volume initially present). […]
Furthermore, the red blood cells from the above cultures were stored for 28 days in a preservation solution and the preservation efficiency at the end of the preservation period was determined [100×(final red blood cell count/mL)/(initial red blood cell count/mL].

cultured red blood cells [2] = test: Cell losses at end of red blood cell perfusion culture; type: cell-based; conditions: Trolox approximately 100 μM in culture medium, perfusion bioreactor step D7 to D22; average of 6 cultures; 13% loss without Trolox
Protocol: as §1, §2, §3
Fifteen cultures were performed (9 without Trolox and 6 with Trolox) and cell losses were measured at the end of the culture, defined as the % decrease in cell concentration between the peak cell concentration and the day the culture was stopped (2 to 3 days later).

## Cc1c(C)c2c(c(C)c1O)CCC(C)(C(=O)O)O2 (centres unmarked) [Trolox, 3,4-dihydro-6-hydroxy-2,5,7,8-tetramethyl-2H-I-benzopyran-2-carboxylic acid]
Cultured red blood cells [1]
  average conservation yield [100×(final red blood cell count/mL)/(initial red blood cell count/mL)]: 77%
Cultured red blood cells [2]
  cell losses at the end of culture (% decrease in cell concentration between peak cell concentration and day culture was stopped): 6%
